Columns and labels:
Stamm HK4 (DSM 2938) = test: Growth of strain HK4 on butyrobetaine esters or butyrobetaine as sole C source; type: cell-based, Agrobacterium/Rhizobium HK4 (DSM 2938); details: 30°C, 140 upm, 48 to 96 h
Description: Der Stamm HK4 (DSM 2938) wurde auf Minimalmedium Agarplatten unter Zusatz von 0,4% (w/v) Betain als einziger C-Quelle nach Einzelkolonie-Ausstrich bei 30°C für 48 bis 72 h inkubiert. Zur Anzucht wurden Einzelkolonien des Stammes von der Agarplatte in das Minimalmedium enthaltend Butyrobetain-methylester (BBMe) und Butyrobetain-ethylester (BBEt) als jeweils einziger C-Quelle überimpft und bei 30°C und 140 upm für 48 bis 96 h inkubiert. Es wurde ein Kontrollversuch durchgeführt, bei dem die Anzucht des Stammes HK4 (DSM 2938) unter den gleichen Bedingungen, jedoch unter Zusatz von Butyrobetain anstelle eines Butyrobetain-esters als einziger C-Quelle, erfolgte.

[1] = Control: storage of butyrobetaine esters in the medium without cells (hydrolytic stability); type: physicochemical; details: same medium and conditions as Example 2 (30°C, 74 h) but without cells
Description: Die Stämme HK13 (DSM 2903) und HK1349 (DSM 3944) wurden jeweils in "Nutrient Yeast broth" Vorkulturmedium (10 mL), welchem L-Carnitin (0,05% (w/v)) als Induktor des L-Carnitinstoffwechsels zugesetzt wurde, überimpft und 2 Tage bei 30°C und 140 upm inkubiert. Die Vorkulturen (0,01 mL) wurde in das Minimalmedium (10 mL), welches zusätzlich 0,02% (w/v) Betain, 0,05% (v/v) Glycerin, 0,50% (w/v) L-Glutamat und entweder 0,75% (w/v) Butyrobetain-methylester (BBMe) oder 0,75% (w/v) Butyrobetain-ethylester (BBEt) enthielt, überimpft und bei 30°C und 140 upm inkubiert. Nach 40 h betrug die OD650 von beiden Kulturen ca. 9,0 und die Kulturen befanden sich in der stationären Phase. Nach weiteren 34 h wurden Proben entnommen. Die Zellen wurden zentrifugiert (11 000 upm, 5 min) und der Überstand wurde mittels HPLC auf den Gehalt an Butyrobetain, L-Carnitin und nicht umgesetzten Butyrobetain-ester untersucht. Die Ergebnisse sind in Tabelle 2 zusammengefasst. Als Kontrollversuch wurden Butyrobetain-methylester (BBMe) und Butyrobetain-ethylester (BBEt) jeweils im gleichen Medium und unter den gleichen Bedingungen, jedoch ohne Zusatz von Zellen, gelagert. […]

[2] = test system: Hydrolasen im Zellextrakt des Stammes HK1349 (DSM 3944); test: Substrate specificity of the hydrolases of HK1349 (pH-stat titration); type: biochemical, Agrobacterium/Rhizobium HK1349 (DSM 3944); details: 5% (v/v) ester emulsion, 37°C; for Spezifische Hydrolase-Aktivität [U/mg Protein]: lyophilised Triton X-114 supernatant of HK1349; for Relative spezifische Hydrolase-Aktivität [%]: 100% = 0,039 U/mg Protein
Description: Die gemäss Beispiel 4.1. erhaltene Zellsuspension (HK1349 (DSM 3944), OD650 nm 37, 50 mM Natriumphosphat-Puffer, pH 7,5) wurde durch 10 minütige Behandlung mit Ultraschall unter Eisbadkühlung aufgeschlossen, mit Triton X-114 (5% (v/v); 30 min; 25°C) inkubiert und dann zentrifugiert (4 000 upm; 10 min; 4°C). Der Überstand wurde lyophilisiert. Der lyophilisierte Überstand (100 mg) wurde in Natriumphosphatpuffer (50 mM; pH 7,5; 1,0 mL) gelöst und zu Emulsionen von Essigsäure-ethylester, Buttersäure-ethylester und Buttersäure-methylester (5% (v/v) Ester emulgiert mittels eines Ultraturrax in destilliertem Wasser enthaltend 2% (w/v) Gummi arabicum; 20 mL) bei 37°C gegeben. Die bei der Hydrolyse des Esters freigesetzte Säure wird mit NaOH (0,01 M) unter Verwendung eines pH-Stats titriert. 1 U (Unit) entspricht der Menge an Säure (in µmol), die pro Minute freigesetzt wird. Die höchste spezifische Hydrolase-Aktivität (0,039 U/mg Protein) wurde als 100%-Wert betrachtet. Die Ergebnisse sind in Tabelle 5 zusammengestellt.

[3] = test system: Hydrolasen im Zellextrakt des Stammes HK1349 (DSM 3944); test: Hydrolase activity of HK1349 supernatant after cell disruption and treatment with detergents (4-nitrophenyl acetate assay); type: biochemical, Agrobacterium/Rhizobium HK1349 (DSM 3944); details: supernatant after cell disruption and treatment with 5% (v/v) detergent, 30 min, 25°C; 100% = 0,30 U/mg Protein
Description: Die Bestimmung der Hydrolase-Aktivität erfolgte photometrisch mittels Essigsäue-4-nitrophenylester-Assay. Hierzu wurde die Proteinlösung (900 µL) mit einer Lösung von Essigsäure-4-nitrophenylester (10 mM in Dimethylsulfoxid; 100 µL) bei 25°C versetzt. Die Absorption des während der Hydrolyse gebildeten 4-Nitrophenols (e = 15 × 10^3 × M^-1 cm^-1) wurde bei 410 nm gemessen. 1 Unit (U) entspricht der Menge 4-Nitrophenol (in µmol), die pro Minute freigesetzt wird. Die Bestimmung des Proteingehaltes der eingesetzten Proteinlösung erfolgte mit dem BCA (Bicin choninic acid) Protein Assay kit (Pierce) nach Anleitung des Herstellers. Die spezifische Hydrolase-Aktivität wird angegeben in U/mg Protein und entspricht der Menge 4-Nitrophenol (in µmol), die pro Minute und mg Protein freigesetzt wird.
Die gemäss Beispiel 4.1. erhaltene Zellsuspension (HK1349 (DSM 3944), OD650 nm 37, 50 mM Natriumphosphat-Puffer, pH 7,5) wurde durch 10 minütige Behandlung mit Ultraschall unter Eisbadkühlung aufgeschlossen, mit verschiedenen Detergentien (5% (v/v) Detergenz; 30 min; 25°C) inkubiert und die Zelltrümmer wurden abzentrifugiert (4 000 upm; 10 min; 4°C). Die spezifische Hydrolase-Aktivität der Überstände wurde mittels Essigsäure-4-nitrophenylester-Assay bestimmt. Die höchste spezifische Hydrolase-Aktivität (0,30 U/mg Protein) wurde als 100%-Wert betrachtet. Die Ergebnisse sind in Tabelle 4 zusammengestellt. Die höchste spezifische Hydrolase-Aktivität wurde unter Verwendung von Triton X-114 beobachtet.

[4] = 1,0 % (w/v) as sole C source in minimal medium

Row | Molecule | Wachstum [OD650] (Stamm HK4 (DSM 2938); [4]) | Spezifische Hydrolase-Aktivität [U/mg Protein] [2] | Relative spezifische Hydrolase-Aktivität [%] [2] [%] | Relative spezifische Hydrolase-Aktivität [%] [3] [%] | also measured
1 | CCOC(=O)CCC[N+](C)(C)C [BBEt, Butyrobetain-ethylester] | 0,76 OD650 | – | – | – | Wachstum [OD650] (Stamm HK4 (DSM 2938); 0,2 % (w/v) as sole C source in minimal medium): 0,23 OD650; Hydrolyse der Butyrobetain-ester zu Butyrobetain [1]: keine Hydrolyse
2 | COC(=O)CCC[N+](C)(C)C [BBMe, Butyrobetain-methylester] | 0,76 OD650 | – | – | – | Hydrolyse der Butyrobetain-ester zu Butyrobetain [1]: keine Hydrolyse
3 | CCCC(=O)OCC [Buttersäure-Ethylester] | – | 0,028 U/mg Protein | 72 | – | –
4 | CCCC(=O)OC [Buttersäure-Methylester] | – | 0,038 U/mg Protein | 97 | – | –
5 | C[N+](C)(C)CCCC(=O)[O-] [Butyrobetain] | 7,0 OD650 | – | – | – | –
6 | CCOC(C)=O [Essigsäure-Ethylester] | – | 0,039 U/mg Protein | 100 | – | –
7 | CCCCCCCCCCCCOS(=O)(=O)O [SDS] | – | – | – | 26 | –
8 | CCCCCCCC/C=C\CCCCCCCC(=O)OCCOCC(OCCO)C1OCC(OCCO)C1OCCO (stereo not drawn) [Tween 80] | – | – | – | 80 | –
9 | Triton X-100 | – | – | – | 64 | –

Source: patent EP1370663B1, “MICROBIOLOGICAL METHOD FOR PRODUCING L-CARNITINE” (priority 2001, dated 2002)
